Reference: patent US8069687B2, “Working media for refrigeration processes” (priority 2005, dated 2011)
Read-outs that look alike come from different tables or passages of the source.

Columns and labels:
[1] = Excerpt: If, as described in • W. Pennington; How to find accurate vapor pressures of lithium bromide water solutions; Refrig. Eng. 63 (May 1955) 57-61 or • D. A. Boryta, A. J. Maas, C. B. Grant; Vapor pressure-temperature-concentration relationship for system lithium bromide and water (40-70% lithium bromide); J. Chem. Eng. Data 20 (1975) 316-319 or • S. Iyoki, T. Uemura; Vapor pressure of the water-lithium bromide system and water-lithium bromide-zinc bromide-lithium chloride system at high temperatures; Int. […] In the prior art, the use of LiBr as absorbent and water as refrigerant is very widespread.
(§1) If, as described in • W. Pennington; How to find accurate vapor pressures of lithium bromide water solutions; Refrig. Eng. 63 (May 1955) 57-61 or • D. A. Boryta, A. J. Maas, C. B. Grant; Vapor pressure-temperature-concentration relationship for system lithium bromide and water (40-70% lithium bromide); J. Chem. Eng. Data 20 (1975) 316-319 or • S. Iyoki, T. Uemura; Vapor pressure of the water-lithium bromide system and water-lithium bromide-zinc bromide-lithium chloride system at high temperatures; Int.
as §1, with “Ethoxylated cocodiethanolammonium chloride is an ionic liquid which can be obtained under the name TEGO IL K5 from Degussa AG. If,” for “If,”
as §1, with “The ionic liquid diethylpolypropoxymethylammonium chloride can be obtained from Degussa AG under the name TEGO IL P9. If,” for “If,”
as §1

[2] = Absorption isotherm: partial pressure of 2,2,2-trifluoroethanol over sorbent material at 70° C.; assay type: physicochemical
Excerpt: Absorption isotherms result from the amount of a volatile component (here the refrigerant) which, at a predetermined temperature and at pressures which are generally lower than the vapor pressure of the pure refrigerant; dissolves, in an equilibrium state, in a very high-boiling or nonvolatile liquid (here the sorbent material). The pairs of values of concentration of the liquid binary mixture and the pressure of the volatile component over the liquid at a given temperature thereby give an absorption isotherm. […] In the absorption refrigerating machines considered here, a sorbent material shall absorb the refrigerant after its expansion and vaporization at a low pressure. An advantageous sorbent material, at a given pressure, takes up as much refrigerant as possible, whereupon the volume and the masses of the circulating streams minimize (or lower pressure for the same composition). This leads to the fact that the unit achieves a higher degree of efficiency and can be more advantageous with respect to its dimensions and also the amount of absorber used.
The measurements were carried out at 70° C.

[3] = Crystallization of the sorbent in water; assay type: physicochemical; conditions: T≧20° C.; concentrations greater than 65 mass % ionic liquid in water
[4] = depending on system temperature; prior art; cited from earlier work
[5] = Absorption isotherm: partial pressure of R134a over sorbent material at 20° C.; assay type: physicochemical
Excerpt: Absorption isotherms result from the amount of a volatile component (here the refrigerant) which, at a predetermined temperature and at pressures which are generally lower than the vapor pressure of the pure refrigerant; dissolves, in an equilibrium state, in a very high-boiling or nonvolatile liquid (here the sorbent material). The pairs of values of concentration of the liquid binary mixture and the pressure of the volatile component over the liquid at a given temperature thereby give an absorption isotherm. Such absorption isotherms of high-boiling or nonvolatile liquid substances can be measured using various dynamic or static experimental methods of which, here, by way of example reference is made to a dynamic, gravimetric method, as was presented by Sadowski G., Mokrushina L. V., Arlt, W., “Finite and infinite dilution activity coefficients in polycarbonate systems”, Fluid Phase Equilibria, 139 (1997) 391-493. In the absorption refrigerating machines considered here, a sorbent material shall absorb the refrigerant after its expansion and vaporization at a low pressure. An advantageous sorbent material, at a given pressure, takes up as much refrigerant as possible, whereupon the volume and the masses of the circulating streams minimize (or lower pressure for the same composition). This leads to the fact that the unit achieves a higher degree of efficiency and can be more advantageous with respect to its dimensions and also the amount of absorber used.
The measurements were carried out at 20° C.

[6] = in vivo; cited from earlier work
[7] = as described by N. Bicak; cited from earlier work
[8] = 25° C.; as described by N. Bicak; cited from earlier work
[9] = 20° C., 80 mass % ionic liquid and 20 mass % water
[10] = 40° C., 92 mass % ionic liquid and 8 mass % water
[11] = mass fraction of ionic liquid 0.20
[12] = mass fraction of ionic liquid 0.80
[13] = 20° C., 80 mass % ionic liquid and 20 mass % water, pure water 23.37 mbar
[14] = mass fraction of the sorbent material 0.20
[15] = mass fraction of the sorbent material 0.40
[16] = mass fraction of the sorbent material 0.60
[17] = mass fraction of the sorbent material 0.80
[18] = mass fraction of ionic liquid 0.40
[19] = mass fraction of ionic liquid 0.60

| Molecule | Partial pressure of 2,2,2-trifluoroethanol [2, 11] [kPa] | Partial pressure of 2,2,2-trifluoroethanol [2, 12] [kPa] | crystallization in water [3] | Partial pressure of R134a [5, 14] [kPa] | Partial pressure of 2,2,2-trifluoroethanol [2, 18] [kPa] | Partial pressure of 2,2,2-trifluoroethanol [2, 19] [kPa] | also measured |
| --- | --- | --- | --- | --- | --- | --- | --- |
| CS(=O)(=O)[O-].C[N+](C)(CCO)CCO [Salt B, bis(2-hydroxyethyl)dimethylammonium methylsulfonate] | 42.0 | 1.6 | does not crystallize out | – | – | – | water partial pressure [1, 9]: 14 mbar; pressure reduction factor compared with the vapor pressure of pure water [1, 10]: 5.3; water partial pressure [1, 10]: approximately 13.9 mbar |
| [Br-].[Li+] [LiBr, lithium bromide] | – | – | – | – | – | – | LiBr concentration above which LiBr crystallizes in water [4]: above 60 mass % |
| ethoxylated cocodiethanolammonium chloride [TEGO IL K5] | – | – | does not crystallize out | – | – | – | water partial pressure [1, 9]: 17 mbar; factor by which the vapor pressure of pure water was lowered [1, 13]: 1.38 |
| CCn1cc[n+](C)c1.[Cl-] [EMIM Cl] | 19.3 | 0.2 | – | 327 | 4.0 | 1.0 | Partial pressure of R134a [5, 15]: 135 kPa; Partial pressure of R134a [5, 16]: 37 kPa; Partial pressure of R134a [5, 17]: 7 kPa |
| diethylpolypropoxymethylammonium chloride [TEGO IL P9] | – | – | does not crystallize out | – | – | – | water partial pressure ([1]; 30° C., 94 mass % ionic liquid and 6 mass % water): 6 mbar; factor by which the vapor pressure of pure water was decreased ([1]; 30° C., 94 mass % ionic liquid and 6 mass % water, pure water 42.41 mbar): 7.07 |
| CCn1cc[n+](C)c1.[OH-] [EMIM OH] | 5.0 | <0.1 | – | 345 | <0.1 | <0.1 | Partial pressure of R134a [5, 15]: 112 kPa; Partial pressure of R134a [5, 16]: 20 kPa; Partial pressure of R134a [5, 17]: 3 kPa |
| CCCC[n+]1ccc(C)cc1.[Cl-] [MBP Cl, 1-butyl-4-methylpyridinium chloride] | 25.2 | 0.3 | – | – | 5.0 | 1.3 | – |
| CC(=O)[O-].CCn1cc[n+](C)c1 [EMIM OAc] | 24.7 | 0.2 | – | 360 | 3.7 | 0.8 | Partial pressure of R134a [5, 15]: 175 kPa; Partial pressure of R134a [5, 16]: 66 kPa; Partial pressure of R134a [5, 17]: 17 kPa |
| C[N+](C)(CCO)CCO.[Cl-] [Salt A, bis(2-hydroxyethyl)dimethylammonium chloride] | 33.0 | 0.7 | – | – | 11.1 | 3.6 | – |
| CCCCn1cc[n+](C)c1.F[B-](F)(F)F [BMIM BF4, 1-butyl-3-methylimidazolium tetrafluoroborate, reference compound] | 70.2 | 18.0 | – | – | 53.0 | 35.9 | – |
| CCn1cc[n+](C)c1 [EMIM EtSO4] | – | – | does not crystallize out | 360 | – | – | water partial pressure [1, 9]: 15 mbar; factor by which the vapor pressure of pure water was lowered [1, 13]: 1.56; LD50 [6]: > 2000 mg/kg |
| NCCO.O=CO [2-Hydroxyethylammonium formate] | – | – | – | – | – | – | stability to hydrolysis (Stability to hydrolysis): comparatively poor stability to hydrolysis; thermal stability, upper temperature [7]: up to 150 °C; vapor pressure [8]: 2.2×10^−2 torr |
| CCn1cc[n+](C)c1.CS(=O)(=O)[O-] [EMIM MeSO3] | 39.7 | 1.2 | does not crystallize out | – | 13.5 | 4.6 | water partial pressure ([1]; 30° C., 87 mass % ionic liquid and 13 mass % water): 9 mbar; factor by which the vapor pressure of pure water was lowered ([1]; 30° C., 87 mass % ionic liquid and 13 mass % water, pure water 42.41 mbar): 4.7 |
| 1,3-dimethylimidazolium dimethyl phosphate [MMIM MMPO4] | 39.7 | 0.8 | – | 439 | 10.7 | 3.2 | Partial pressure of R134a [5, 15]: 303 kPa; Partial pressure of R134a [5, 16]: 164 kPa; Partial pressure of R134a [5, 17]: 57 kPa |
| CCCCn1cc[n+](C)c1.[Br-] [BMIM Br, 1-butyl-3-methylimidazolium bromide, reference compound] | 42.2 | 1.6 | – | – | 15.1 | 5.6 | – |
